Experimental findings from PubChem BioAssay (NCI) are described below.

Test systems include HL-60(TB) leukemia; HT29 colon; KM12 colon; MALME-3M melanoma; OVCAR-5 ovarian; SF-268 CNS; SF-539 CNS; SK-MEL-5 melanoma.
Assay in all cases: inhibition of tumour cell growth, NCI panel, 48 h

Several values for one entry are separate records, joined by “and”; a condition that tells them apart may be missing. Equal values may be shown once.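 Assay format: 96-well plates, 48-hour exposure. Abbreviation: GI50, concentration required for 50% inhibition of growth. TGI is the concentration that stops growth completely.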

In the case of `Cc1cc(Cl)cc2c1NC(=O)C2(O)CC(=O)c1ccc(Br)cc1` (stereo unspecified), the TGI with HL-60(TB) leukemia is 48.2 µM; in the experiment on HT29 colon it was greater than 100 µM; with KM12 colon, greater than 100 µM; in the experiment with MALME-3M melanoma, greater than 100 µM; with OVCAR-5 ovarian, greater than 100 µM; in the experiment on SF-268 CNS, greater than 100 µM. For the same molecule, the TGI was greater than 100 µM in the experiment on SF-539 CNS and 57.8 µM in the experiment on SK-MEL-5 melanoma.

On to `CCCCNS(=O)(=O)c1ccc(-c2ccc3c(c2)-c2ccc(S(=O)(=O)NCCCC)cc2S3(=O)=O)cc1`, for which the TGI is greater than 100 µM in the experiment with HL-60(TB) leukemia; greater than 100 µM in the experiment with HT29 colon; greater than 100 µM in the experiment on KM12 colon; 49.2 µM in the experiment on MALME-3M melanoma; greater than 100 µM in the experiment on OVCAR-5 ovarian; 31.3 µM in the experiment on SF-268 CNS. Further, the TGI in the experiment with SF-539 CNS came out at 27.4 µM; in the experiment on SK-MEL-5 melanoma, 28.6 µM.

In the case of `CCOC(=O)[C@@]12C(C)=CC(=O)O[C@]1(C)C1C(=O)NC(=O)C12` (stereo partly specified), the TGI in the experiment with HL-60(TB) leukemia, with HT29 colon, in the experiment on KM12 colon, in the experiment on MALME-3M melanoma, in the experiment with SF-539 CNS and with SK-MEL-5 melanoma was greater than 100 µM in each case.

On to `O=C(O)c1c2c(cc3c(=O)c4ccccc4[nH]c13)CCCC2`, for which the TGI with HL-60(TB) leukemia, in the experiment on HT29 colon, in the experiment with MALME-3M melanoma, in the experiment on OVCAR-5 ovarian, in the experiment with SF-268 CNS and with SF-539 CNS was greater than 100 µM in each case.

Regarding `CCCCCCCC(=O)[O-].CCCCCCCC(=O)[O-].N.N.N.N.[Co+3].[O-][Cl+3]([O-])([O-])[O-]`, the GI50 in the experiment on HL-60(TB) leukemia was greater than 100 µM; in the experiment with KM12 colon it was greater than 100 µM; in the experiment with MALME-3M melanoma, greater than 100 µM; with OVCAR-5 ovarian, greater than 100 µM; with SF-268 CNS, 19.1 µM; with SF-539 CNS it was greater than 100 µM. Also, the TGI in the experiment on HL-60(TB) leukemia, in the experiment with KM12 colon, with MALME-3M melanoma, in the experiment on OVCAR-5 ovarian, with SF-268 CNS and in the experiment on SF-539 CNS was greater than 100 µM each time.

Regarding `Cc1ccc(N2C(=O)/C(=C/c3ccc(N(CCC#N)CCC#N)cc3)N=C2COc2ccc(Cl)cc2Cl)cc1`, the TGI in the experiment on HL-60(TB) leukemia, with HT29 colon, in the experiment on KM12 colon, with MALME-3M melanoma, with OVCAR-5 ovarian and in the experiment on SF-268 CNS was greater than 100 µM throughout. Besides, the TGI in the experiment on SF-539 CNS and in the experiment on SK-MEL-5 melanoma was greater than 100 µM in each case.

As for `O=C1C(Cl)=C(Cl)C(=O)N1c1ccc(Cl)c(Cl)c1Cl`, the TGI in the experiment on HL-60(TB) leukemia is 46.2 µM; in the experiment on HT29 colon it was greater than 100 µM; in the experiment with KM12 colon it was greater than 100 µM; in the experiment on MALME-3M melanoma, greater than 100 µM; in the experiment with OVCAR-5 ovarian it was greater than 100 µM; in the experiment with SF-268 CNS it was greater than 100 µM. In addition, the TGI in the experiment on SF-539 CNS and with SK-MEL-5 melanoma was greater than 100 µM in each case.

For `CCCC(O)c1cn(-c2cccc(S(=O)(=O)O)c2)nn1` (stereo unspecified), the TGI with HL-60(TB) leukemia, in the experiment with HT29 colon, with KM12 colon, with MALME-3M melanoma, in the experiment on OVCAR-5 ovarian and with SF-268 CNS was greater than 100 µM each time. Also, the TGI in the experiment on SF-539 CNS and in the experiment with SK-MEL-5 melanoma was greater than 100 µM throughout.

As for `O=C1OC(=O)C23CSCC12C1C=CC3O1` (stereo unspecified), the TGI in the experiment with HL-60(TB) leukemia, with HT29 colon, in the experiment on KM12 colon, with MALME-3M melanoma, with OVCAR-5 ovarian and in the experiment on SF-268 CNS was greater than 100 µM throughout. The TGI with SF-539 CNS and in the experiment on SK-MEL-5 melanoma was greater than 100 µM throughout.

Consider `CC(=O)OCC1OC(n2c(=O)[nH]c(=O)c3n[nH]nc32)C(OC(C)=O)C(OC(C)=O)C1OC(C)=O` (stereo unspecified), for which the TGI in the experiment on HL-60(TB) leukemia, in the experiment with HT29 colon, with MALME-3M melanoma, with OVCAR-5 ovarian, with SF-268 CNS and with SK-MEL-5 melanoma was greater than 100 µM throughout.

For the molecule `COc1cc(Cc2c(C)cc(OC)c3[nH]c4ccccc4c23)cc2c1[nH]c1ccccc12`, the GI50 is 7.95 µM in the experiment on HL-60(TB) leukemia; 7.84 µM in the experiment on HT29 colon; 5.43 µM in the experiment on KM12 colon; 4.44 µM in the experiment on MALME-3M melanoma; 6.97 µM in the experiment with SF-268 CNS; 4.61 µM with SF-539 CNS. The GI50 with SK-MEL-5 melanoma was 3.94 µM. Further, the TGI in the experiment with HL-60(TB) leukemia is greater than 25 µM; in the experiment on HT29 colon it was greater than 25 µM; in the experiment with KM12 colon, 15 µM; in the experiment on MALME-3M melanoma it was 12.4 µM; in the experiment with OVCAR-5 ovarian it was 12.5 µM; with SF-268 CNS it was 24.9 µM. Moreover, the figures for the TGI in the experiment on SF-539 CNS and in the experiment with SK-MEL-5 melanoma were 9.23 µM and 7.93 µM, respectively.

For the molecule `Cc1ccc(SSCC(O)C(O)CSSc2ccc(C)cc2)cc1` (stereo unspecified), the GI50 in the experiment with HL-60(TB) leukemia is 1.01 µM and 4.6 µM; with SF-268 CNS, 4.6 µM and 10.4 µM. Moreover, the TGI is 3.1 µM and 25.6 µM in the experiment with HL-60(TB) leukemia; 27.8 µM and 49.8 µM with HT29 colon; 21.2 µM and 23.8 µM in the experiment on KM12 colon; 36 µM and 30.7 µM in the experiment with MALME-3M melanoma; 30.2 µM and 38.4 µM with OVCAR-5 ovarian; 19.1 µM and 29.2 µM in the experiment on SF-268 CNS. The TGI in the experiment with SF-539 CNS was 8.17 µM and 14.3 µM; with SK-MEL-5 melanoma, 25.6 µM and 19.9 µM.

Turning to `COc1ccc(N2C(=O)[C@@H](N=[N+]=[N-])[C@@H]2[C@H]2COC(C)(C)O2)cc1`, the TGI in the experiment with HL-60(TB) leukemia, in the experiment with HT29 colon, in the experiment on KM12 colon, in the experiment on MALME-3M melanoma, in the experiment on OVCAR-5 ovarian and in the experiment with SF-268 CNS was greater than 100 µM in each case. In addition, the TGI in the experiment on SF-539 CNS and in the experiment on SK-MEL-5 melanoma was greater than 100 µM each time.

On to `CCC(C)(O)c1cn(-c2ccc(Cl)cc2)nn1` (stereo unspecified), for which the TGI with HL-60(TB) leukemia, in the experiment on HT29 colon, with KM12 colon, with MALME-3M melanoma, with OVCAR-5 ovarian and in the experiment with SF-268 CNS was greater than 100 µM in each case. Also, the TGI with SF-539 CNS and with SK-MEL-5 melanoma was greater than 100 µM throughout.

As for `CN1CCN=C1c1nnn(-c2ccc([N+](=O)[O-])cc2)c1-c1ccccc1`, the TGI with HL-60(TB) leukemia was 61.4 µM; in the experiment on HT29 colon, greater than 100 µM; in the experiment on KM12 colon, greater than 100 µM; in the experiment on MALME-3M melanoma, greater than 100 µM; in the experiment with OVCAR-5 ovarian, greater than 100 µM; in the experiment on SF-268 CNS, greater than 100 µM. In addition, the TGI in the experiment on SF-539 CNS and in the experiment on SK-MEL-5 melanoma was greater than 100 µM in each case.

With `CC1=NN(c2ccccc2)C(=O)C12[C@H](c1ccccc1)C2(C#N)C#N` (stereo partly specified), the TGI in the experiment with HL-60(TB) leukemia was 7.81 µM; in the experiment on HT29 colon, 17.1 µM; in the experiment on KM12 colon it was 25.1 µM; in the experiment with MALME-3M melanoma, 11.6 µM; in the experiment with OVCAR-5 ovarian, 24.2 µM; in the experiment with SF-268 CNS, 20.6 µM. The TGI with SF-539 CNS is 27.7 µM; with SK-MEL-5 melanoma, 14.3 µM.

Turning to `O=C1CC(C2(O)C(=O)Nc3ccc([N+](=O)[O-])cc32)c2ccccc21` (stereo unspecified), the TGI was 45.3 µM in the experiment with HL-60(TB) leukemia; 62.7 µM in the experiment with HT29 colon; 98.6 µM in the experiment on KM12 colon; greater than 100 µM in the experiment on MALME-3M melanoma; greater than 100 µM in the experiment on OVCAR-5 ovarian; 54.7 µM in the experiment on SF-268 CNS. Moreover, the TGI with SF-539 CNS was 64.1 µM; in the experiment on SK-MEL-5 melanoma, 75.6 µM.

Regarding `CCOC(=O)c1sc2c(C(=O)OCC)n3cc(C)cc(C)c3c2c1O`, the TGI in the experiment with HT29 colon, in the experiment with KM12 colon, with MALME-3M melanoma, in the experiment with OVCAR-5 ovarian, in the experiment with SF-268 CNS and with SF-539 CNS was greater than 100 µM each time. Moreover, the TGI in the experiment with SK-MEL-5 melanoma was greater than 100 µM.

As for `O=c1c2ccccc2oc2ccccc12` (tested in a mixture with another compound), the TGI is greater than 100 µM in the experiment with HL-60(TB) leukemia; greater than 100 µM in the experiment with KM12 colon; 8.18 µM in the experiment with MALME-3M melanoma; greater than 100 µM in the experiment with SF-268 CNS; greater than 100 µM with SF-539 CNS; 7.61 µM in the experiment with SK-MEL-5 melanoma.

Turning to `COC(=O)C(=O)C(C(=O)C(=O)Nc1ccccc1[N+](=O)[O-])c1nc2ccc([N+](=O)[O-])cc2[nH]c1=O` (stereo unspecified), the TGI in the experiment on HL-60(TB) leukemia, in the experiment on HT29 colon, in the experiment with KM12 colon, in the experiment with MALME-3M melanoma, in the experiment on OVCAR-5 ovarian and with SF-268 CNS was greater than 100 µM each time. In the experiment with SK-MEL-5 melanoma, this molecule yielded a TGI greater than 100 µM.

`C=CCC12CC(=O)CCC1c1ccc(OC)cc1C2=O` (stereo unspecified): the TGI in the experiment on HL-60(TB) leukemia, in the experiment on HT29 colon, in the experiment with KM12 colon, in the experiment with MALME-3M melanoma, in the experiment on OVCAR-5 ovarian and in the experiment with SF-268 CNS was greater than 100 µM each time. The TGI in the experiment on SF-539 CNS and in the experiment on SK-MEL-5 melanoma was greater than 100 µM each time.

For `COC(=O)/C(C#N)=C1\CCC(OC)N1C` (stereo unspecified), the TGI in the experiment with HL-60(TB) leukemia, in the experiment on HT29 colon, in the experiment with KM12 colon, in the experiment on MALME-3M melanoma, with OVCAR-5 ovarian and in the experiment on SF-268 CNS was greater than 100 µM in each case. Besides, the TGI in the experiment on SF-539 CNS and with SK-MEL-5 melanoma was greater than 100 µM throughout.

Regarding `COc1ccc(-c2cc3ccccc3[nH]c2=O)cc1OC`, the TGI in the experiment with HL-60(TB) leukemia, in the experiment with HT29 colon, in the experiment with KM12 colon, in the experiment on MALME-3M melanoma, in the experiment on OVCAR-5 ovarian and in the experiment with SF-268 CNS was greater than 100 µM throughout. In the experiment on SF-539 CNS, this molecule yielded a TGI greater than 100 µM.
